Test results from patent US7101896B2, “Pharmaceutical compositions and methods for use” (Targacept, Inc., priority 1999, dated 2006).

biological target: CNS nicotinic receptors (Rattus norvegicus, UniProt P09483+P12390); experiment: Determination of binding to relevant receptor sites; details: calculated from the IC50 values using the method of Cheng et al.; techniques of U.S. Pat. No. 5,597,919; read-out: Ki (inhibition constant, receptor binding)
Sequence (P09483 31-630): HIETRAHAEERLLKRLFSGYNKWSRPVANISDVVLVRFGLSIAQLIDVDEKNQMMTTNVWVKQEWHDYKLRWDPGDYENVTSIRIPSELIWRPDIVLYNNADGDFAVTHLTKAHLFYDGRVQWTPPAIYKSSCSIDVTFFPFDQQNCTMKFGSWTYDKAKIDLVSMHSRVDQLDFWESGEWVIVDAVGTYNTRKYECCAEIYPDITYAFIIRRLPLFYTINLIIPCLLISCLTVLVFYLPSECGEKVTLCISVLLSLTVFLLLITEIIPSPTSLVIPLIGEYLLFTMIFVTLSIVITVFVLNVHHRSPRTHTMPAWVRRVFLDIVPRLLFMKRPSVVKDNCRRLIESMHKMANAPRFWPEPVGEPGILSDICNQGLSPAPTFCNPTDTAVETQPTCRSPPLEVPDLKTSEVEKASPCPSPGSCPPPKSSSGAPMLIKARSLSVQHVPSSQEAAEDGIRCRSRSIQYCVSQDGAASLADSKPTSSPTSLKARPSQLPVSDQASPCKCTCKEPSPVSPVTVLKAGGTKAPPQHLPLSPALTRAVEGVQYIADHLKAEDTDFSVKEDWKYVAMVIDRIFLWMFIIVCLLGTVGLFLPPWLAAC
Sequence (P12390 25-500): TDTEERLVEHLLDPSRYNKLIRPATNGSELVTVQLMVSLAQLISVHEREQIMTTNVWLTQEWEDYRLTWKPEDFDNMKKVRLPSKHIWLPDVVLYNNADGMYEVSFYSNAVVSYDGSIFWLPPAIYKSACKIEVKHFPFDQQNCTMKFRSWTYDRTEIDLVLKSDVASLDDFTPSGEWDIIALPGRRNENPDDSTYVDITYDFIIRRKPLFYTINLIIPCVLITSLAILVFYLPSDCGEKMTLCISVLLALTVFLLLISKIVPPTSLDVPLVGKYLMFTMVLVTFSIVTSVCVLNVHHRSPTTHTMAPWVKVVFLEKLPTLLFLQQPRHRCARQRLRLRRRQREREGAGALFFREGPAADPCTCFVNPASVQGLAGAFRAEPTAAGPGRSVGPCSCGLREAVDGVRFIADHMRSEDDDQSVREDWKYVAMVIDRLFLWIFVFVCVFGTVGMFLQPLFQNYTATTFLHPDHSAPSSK

Point of comparison: “(S)-3-(4-methoxyphenoxy)-5-(pyrrolidin-2-ylethynyl)pyridine hemigalactarate [Sample No. 10]”, Ki 33 nM. Against it:
- (S)-3-(phenoxyphenyl)-5-(pyrrolidin-2-ylethynyl)pyridine hemigalactarate [Sample No. 9] — 16-fold higher, 530 nM
- (S)-3-isopropoxy-5-(pyrrolidin-2-ylethynyl)pyridine hemigalactarate [Sample No. 7] — 16-fold lower, 2 nM
- (S)-(E)-3(2-pyrrolidin-2-ylvinyl)pyridine hemigalactarate [Sample No. 2] — 9.3-fold higher, 306 nM
- (E,S)-3-cyclopentyloxy-5-(pyrrolidin-2-ylvinyl)pyridine hemigalactarate [Sample No. 19] — 1.5-fold higher, 51 nM
- (S)-3-(3-pyridyloxy)-5-(pyrrolidin-2-ylethynyl)pyridine hemigalactarate [Sample No. 15] — 2.5-fold lower, 13 nM
- (S)-3-(pyrrolidin-2-ylethynyl)-5-(tetrahydropyran-4-yloxy)pyridine hemigalactarate [Sample No. 16] — 4.7-fold lower, 7 nM

same assay, conditions: read-out: Ki (inhibition constant, receptor binding)

`Oc1ccc(Oc2cncc(C#C[C@@H]3CCCN3)c2)cc1` [Sample No. 11, (S)-3-(4-hydroxyphenoxy)-5-(pyrrolidin-2-ylethynyl)pyridine] gave a Ki of 2 nM.
